From the supplement of paper PMC10307832

Legend:
Experiment in all cases: relative viability (nuclei count vs DMSO), 5 days (fraction); higher = more cells survive
NCI-H727 = system: NCI-H727
How it was run: (§1)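 Dosing by pin tool came one day after lung cancer cell lines were seeded in 1536-well plates, using either one drug or a fixed anchor-drug dose plus five library-drug doses (not always all listed) in √10 steps. After 5 days, nuclei were counted on 4× images. Relative viability is treated-well nuclei count divided by vehicle-well nuclei count, and values are medians of duplicate plates.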

LCLC-103H = system: LCLC-103H
How it was run: as §1

COR-L 105 = system: COR-L 105
How it was run: as §1

UMC-11 = system: UMC-11
How it was run: as §1

EKVX = system: EKVX
How it was run: as §1

NCI-H661 = system: NCI-H661
How it was run: as §1

NCI-H1650 = system: NCI-H1650
How it was run: as §1

H3255 = system: H3255
How it was run: as §1

HCC-44 = system: HCC-44
How it was run: as §1

NCI-H520 = system: NCI-H520
How it was run: as §1

NCI-H1651 = system: NCI-H1651
How it was run: as §1

NCI-H2087 = system: NCI-H2087
How it was run: as §1

NCI-H358 = system: NCI-H358
How it was run: as §1

201T = system: 201T
How it was run: as §1

NCI-H1437 = system: NCI-H1437
How it was run: as §1

EPLC-272H = system: EPLC-272H
How it was run: as §1

NCI-H647 = system: NCI-H647
How it was run: as §1

COR-L23 = system: COR-L23
How it was run: as §1

HCC-15 = system: HCC-15
How it was run: as §1

ABC-1 = system: ABC-1
How it was run: as §1

NCI-H1975 = system: NCI-H1975
How it was run: as §1

HCC-827 = system: HCC-827
How it was run: as §1

`O=c1[nH]c2ccccc2n1C1CCN(CCCC(c2ccc(F)cc2)c2ccc(F)cc2)CC1` [Pimozide] + O=C(CCCCCCC(=O)Nc1ccccc1)NO [Vorinostat] (partner 1 µM) showed a relative viability (NCI-H727; first compound 0.08 µM) of 1.2, a relative viability (NCI-H727; first compound 0.253 µM) of 1.13 and a relative viability (NCI-H727; first compound 0.8 µM) of 1.11. The relative viability (NCI-H727; first compound 2.53 µM) was 1.15, the relative viability (NCI-H727; first compound 8 µM) was 1.17 and the relative viability (LCLC-103H; first compound 0.08 µM) was 0.814. The relative viability (LCLC-103H; first compound 0.253 µM) was 0.802, the relative viability (LCLC-103H; first compound 0.8 µM) was 0.598 and the relative viability (LCLC-103H; first compound 2.53 µM) was 0.759. It also gave a relative viability (LCLC-103H; first compound 8 µM) of 0.717, a relative viability (COR-L 105; first compound 0.08 µM) of 0.702 and a relative viability (COR-L 105; first compound 0.253 µM) of 0.767. The relative viability (COR-L 105; first compound 0.8 µM) was 0.821, the relative viability (COR-L 105; first compound 2.53 µM) was 0.833 and the relative viability (COR-L 105; first compound 8 µM) was 0.751. For the same compound, the relative viability (UMC-11; first compound 0.08 µM) was 0.426, the relative viability (UMC-11; first compound 0.253 µM) was 0.388 and the relative viability (UMC-11; first compound 0.8 µM) was 0.348. It also gave a relative viability (UMC-11; first compound 2.53 µM) of 0.382, a relative viability (UMC-11; first compound 8 µM) of 0.318 and a relative viability (EKVX; first compound 0.253 µM) of 0.712. For the same compound, the relative viability (EKVX; first compound 0.8 µM) was 0.601, the relative viability (EKVX; first compound 2.53 µM) was 0.812 and the relative viability (EKVX; first compound 8 µM) was 0.641. It also gave a relative viability (NCI-H661; first compound 0.08 µM) of 0.667, a relative viability (NCI-H661; first compound 0.253 µM) of 0.741 and a relative viability (NCI-H661; first compound 0.8 µM) of 0.723. For the same compound, the relative viability (NCI-H661; first compound 2.53 µM) was 0.699, the relative viability (NCI-H661; first compound 8 µM) was 0.64 and the relative viability (NCI-H1650; first compound 0.08 µM) was 0.449. For the same compound, the relative viability (NCI-H1650; first compound 0.253 µM) was 0.571, the relative viability (NCI-H1650; first compound 0.8 µM) was 0.687 and the relative viability (NCI-H1650; first compound 2.53 µM) was 0.591. For the same compound, the relative viability (NCI-H1650; first compound 8 µM) was 0.546, the relative viability (H3255; first compound 0.253 µM) was 0.699 and the relative viability (H3255; first compound 0.8 µM) was 0.714. It also gave a relative viability (H3255; first compound 2.53 µM) of 0.843, a relative viability (H3255; first compound 8 µM) of 0.808 and a relative viability (HCC-44; first compound 0.08 µM) of 1.12. It also gave a relative viability (HCC-44; first compound 0.253 µM) of 1.12, a relative viability (HCC-44; first compound 0.8 µM) of 0.923 and a relative viability (HCC-44; first compound 2.53 µM) of 1.12. The relative viability (HCC-44; first compound 8 µM) was 0.975, the relative viability (NCI-H520; first compound 0.08 µM) was 0.727 and the relative viability (NCI-H520; first compound 0.253 µM) was 0.663. For the same compound, the relative viability (NCI-H520; first compound 0.8 µM) was 0.671, the relative viability (NCI-H520; first compound 2.53 µM) was 0.685 and the relative viability (NCI-H520; first compound 8 µM) was 0.65. The relative viability (NCI-H1651; first compound 0.08 µM) was 0.565, the relative viability (NCI-H1651; first compound 0.253 µM) was 0.507 and the relative viability (NCI-H1651; first compound 0.8 µM) was 0.599. For the same compound, the relative viability (NCI-H1651; first compound 2.53 µM) was 0.578, the relative viability (NCI-H1651; first compound 8 µM) was 0.593 and the relative viability (NCI-H2087; first compound 0.08 µM) was 0.802. It also gave a relative viability (NCI-H2087; first compound 0.253 µM) of 0.597, a relative viability (NCI-H2087; first compound 2.53 µM) of 0.615 and a relative viability (NCI-H2087; first compound 8 µM) of 0.774. For the same compound, the relative viability (NCI-H358; first compound 0.08 µM) was 0.697, the relative viability (NCI-H358; first compound 0.253 µM) was 0.685 and the relative viability (NCI-H358; first compound 0.8 µM) was 0.639. The relative viability (NCI-H358; first compound 2.53 µM) was 0.906, the relative viability (NCI-H358; first compound 8 µM) was 0.679 and the relative viability (201T; first compound 0.08 µM) was 0.881. The relative viability (201T; first compound 0.253 µM) was 0.964, the relative viability (201T; first compound 0.8 µM) was 0.863 and the relative viability (201T; first compound 2.53 µM) was 0.942. For the same compound, the relative viability (201T; first compound 8 µM) was 0.72, the relative viability (NCI-H1437; first compound 0.08 µM) was 0.786 and the relative viability (NCI-H1437; first compound 0.253 µM) was 0.763. The relative viability (NCI-H1437; first compound 0.8 µM) was 0.767, the relative viability (NCI-H1437; first compound 2.53 µM) was 0.67 and the relative viability (NCI-H1437; first compound 8 µM) was 0.405. It also gave a relative viability (EPLC-272H; first compound 0.08 µM) of 0.402, a relative viability (EPLC-272H; first compound 0.253 µM) of 0.453 and a relative viability (EPLC-272H; first compound 0.8 µM) of 0.417. It also gave a relative viability (EPLC-272H; first compound 2.53 µM) of 0.418, a relative viability (EPLC-272H; first compound 8 µM) of 0.307 and a relative viability (NCI-H647; first compound 0.08 µM) of 0.5. It also gave a relative viability (NCI-H647; first compound 0.253 µM) of 0.577, a relative viability (NCI-H647; first compound 0.8 µM) of 0.621 and a relative viability (NCI-H647; first compound 2.53 µM) of 0.268. The relative viability (NCI-H647; first compound 8 µM) was 0.431, the relative viability (COR-L23; first compound 0.08 µM) was 0.459 and the relative viability (COR-L23; first compound 0.253 µM) was 0.414. It also gave a relative viability (COR-L23; first compound 0.8 µM) of 0.343, a relative viability (COR-L23; first compound 2.53 µM) of 0.432 and a relative viability (COR-L23; first compound 8 µM) of 0.495. The relative viability (HCC-15; first compound 0.08 µM) was 0.828, the relative viability (HCC-15; first compound 0.253 µM) was 0.746 and the relative viability (HCC-15; first compound 0.8 µM) was 0.83. For the same compound, the relative viability (HCC-15; first compound 2.53 µM) was 0.788, the relative viability (HCC-15; first compound 8 µM) was 0.703 and the relative viability (ABC-1; first compound 0.08 µM) was 1.3. It also gave a relative viability (ABC-1; first compound 0.253 µM) of 1.15, a relative viability (ABC-1; first compound 0.8 µM) of 0.884 and a relative viability (ABC-1; first compound 2.53 µM) of 0.908. It also gave a relative viability (ABC-1; first compound 8 µM) of 0.719, a relative viability (NCI-H1975; first compound 0.08 µM) of 0.746 and a relative viability (NCI-H1975; first compound 0.253 µM) of 0.676. The relative viability (NCI-H1975; first compound 0.8 µM) was 0.672, the relative viability (NCI-H1975; first compound 2.53 µM) was 0.696 and the relative viability (NCI-H1975; first compound 8 µM) was 0.563. For the same compound, the relative viability (HCC-827; first compound 0.253 µM) was 0.791, the relative viability (HCC-827; first compound 0.8 µM) was 0.738 and the relative viability (HCC-827; first compound 2.53 µM) was 0.785. The relative viability (HCC-827; first compound 8 µM) was 0.843.
